The text below walks through data of paper PMC11943016, “TBG096 Ameliorates Memory Deficiency in AD Mouse Model via Promoting Neurogenesis and Regulation of Hsc70/HK2/PKM2/LAMP2A Signaling Pathway” (International Journal of Molecular Sciences, 2025).

Like-named read-outs stand apart in the source and are kept apart here.

A word on the bioavailability: it is the share of a dose that reaches the circulation, judged against a reference dose that is usually intravenous. For orientation: AUC(0-inf) means the area under the concentration-time curve extrapolated to infinity. The term AUC(0-t) denotes the area under the concentration-time curve up to a stated or last time point. A high value points to high exposure. Usually Cmax stands for the highest concentration seen after dosing. The term Tmax denotes the time from dosing to the highest level.

The nature of data set [1]: Pharmacokinetic analysis of plasma in SD rats. Format: in vivo. The note with it: female, Sprague-Dawley, rat; for half-life: 14 mg/kg. On the procedure: In the pharmacokinetic analysis, a total of 23 female SD rats aged 8 weeks from Zhejiang Academy of Medical Sciences (Hangzhou, China) (permit number: ZJU20240191) were used. A total of 15 rats were randomly divided into the following groups: (i) control group, (ii) TBG096 (14 mg/kg) oral administration group, and (iii) TBG096 (14 mg/kg) intravenous administration group. TBG096 was administered orally (dissolved in soybean oil) or intravenously (dissolved in Milli-Q water containing 2% Tween 80 and 5% ethanol) at 14 mg/kg after 12 h of fasting. Then, the blood from the posterior ocular venous plexus of rats was taken at 5, 15, 30, 60, 90, 120, 180, and 240 min after administration. A total of eight rats were randomly divided into two groups for taking brain samples: (i) control group and (ii) TBG096 (14 mg/kg) oral administration group.
The collected blood was placed in a centrifuge tube (containing 20 µL heparin sodium solution) and centrifuged at 3000 rpm for 10 min to obtain a supernatant (plasma). Brain samples were collected after the oral administration of 14 mg/kg TBG096 and heart perfusion with PBS. Then, 10 µL of 10% formic acid and 10 µL of internal standard (10 ng/µL) were added to 200 µL of plasma (compound 2 was used as internal standard) or 0.2 g of brain sample (compound 4 was used as internal standard) and vortexed for 10 s and then left at −80 °C overnight. Next, 600 µL or 3 mL of extraction solvent (isopropanol) was added to plasma or brain samples, vortexed for 5 min, left at −30 °C for 2 h, and then centrifuged at 12,000 rpm for 15 min. Next, the upper organic phase was transferred to another tube, centrifuged, and concentrated to dryness. The residue was dissolved in 100 µL of mobile phase, vortexed for 0.5 min, and centrifuged at 12,000 rpm for 3 min, and the supernatant was then prepared for HPLC analysis (Supersil Phenyl 5 µm (4.6 × 200 mm), elution with MeCN/H2O containing 0.1% formic acid (plasma samples: 57% MeCN/H2O, brain samples: 56% MeCN/H2O) for 30 min, flow rate: 1 mL/min, sample size: 20 µL, detected at 284 nm) and HR ESI-TOF-MS analysis.

Data set [2] relates to HFD-induced AD mice. Description: Behavioral tests (Y-maze, NOR, MWM) in HFD-induced AD mice. In kind it is in vivo. From the text:
In experiments with the HFD-induced AD mouse model, a total of 60 Institute of Cancer Research (ICR) male mice aged 4 weeks from Zhejiang Academy of Medical Sciences (Hangzhou, China) were used for animal experiments (permit number: ZJU20230121). The animals were provided free access to a chow diet and water. […] The HFD and normal diet were alternated every two days to maintain freshness. Weekly measurements were taken for water intake, food intake, and body weight. In the eighteenth week, the mice underwent Y-maze and NOR tests. The Morris water maze test was conducted during the nineteenth week. After confirming the successful establishment of the AD model characterized by cognitive impairment, oral administration of treatments commenced. […] Each group had 10 mice.
The Y-maze test is used to evaluate working memory, and the process was referenced in another report. In brief, the Y-maze consists of three black plastic arms (A, B, and C) with the same length (30 cm), width (10 cm), height (15 cm), and 120° relative to adjacent arms. Each mouse is placed facing the wall of arm A and allowed to explore the maze freely for 5 min. The behavior of mice is recorded with a video recorder, and the data are stored in ANY-MAZE software version 6.35 (Stoelting, Chicago, IL, USA). The total number of entries made by the mice into each arm—considered as either whole or half-body entries—is recorded. An alternation is defined as a mouse moving through all three arms without returning to the initial arm on the third visit. Alternation: number of alternations/(number of arm entries − 2) × 100%.
The NOR test is utilized to assess the working memory capabilities of mice. The NOR apparatus consists of an open, black plastic box, two identical objects, and one novel object. The activity of the mice within the open field is captured and recorded using a video recorder, with data subsequently stored in ANY-MAZE software. The test is conducted over a span of two days, incorporating habituation, training, and testing stages. During the habituation phase, the mice are placed in the box devoid of any objects, allowing them to explore freely for a duration of five min. Following a 24 h interval, the NOR test is administered, which consists of both the training and testing phases. In the training phase, each mouse is positioned in the central area of the box, where two identical objects are placed equidistant from the mouse. Each training session lasts for five minutes. After a one-hour break, one of the identical objects is replaced with a new, distinct object, and the exploration duration for each mouse is recorded. Exploration is defined by the time a mouse spends touching or sniffing an object. The exploration times during both the training and testing phases are documented via video recording, and the data are organized within ANY-MAZE software. The object recognition index was defined as follows: (time spent on the new object)/(time spent on the old object + time spent on the new object) × 100%. The data are calculated by ANY-MAZE software.
The MWM test is used to measure spatial memory and long-term memory. The whole MWM equipment includes a circular water tank (diameter 1.5 m, depth 50 cm) with warm water (22 ± 1 °C) 35 cm deep, a platform (diameter 14 cm, immersed 1 cm in water), a camera, and a computer for data analysis. The MWM test is conducted over five 5 days: 4 days for training and 1 day for testing. The pool is divided into four quadrants, and at least three quadrants are tested at a time. In the training stage, the mouse is placed on the wall of one of the four quadrants and allowed to swim and find the platform hidden underwater within 120 s. If the mouse cannot find the platform, the experimenter will guide it and let it stay on the platform for 10 s. The experiment lasts for 4 days. On the fifth day of the test phase, the platform is removed, and each mouse is placed in a similar starting position and allowed to move freely for 90 s. […]

As for `O=C(SCCCCCCSCCCC(F)(F)F)c1cccc(O)c1O` [TBG096], the bioavailability in data set [1] (14 mg/kg oral vs i.v., rats, read-out: absolute (oral) bioavailability) was determined as 36%. Further, the half-life in data set [1] (iv, i.v. 14 mg/kg, rats, read-out: T1/2z) came to 44.4 min. Further, in data set [1] (iv, i.v. 14 mg/kg, rats), the AUC(0-inf) is 2520 ng·h/mL, the AUC(0-t) is 2470 ng·h/mL, the Cmax came to 4700 ng/mL and the Tmax was 5 min. For the same compound, in data set [1] (oral (i.g.) 14 mg/kg, rats), the AUC(0-inf) is 905 ng·h/mL, the AUC(0-t) was 707 ng·h/mL, the Cmax was found to be 700 ng/mL and the Tmax was 15 min. In data set [1] (po, oral (i.g.) 14 mg/kg, rats, read-out: T1/2z (oral elimination half-life)), the half-life was found to be 111 min. In data set [1] (po, oral, as restated in Discussion, read-out: half-life (converted)), the half-life was 111 min. Besides, in data set [2] (0.1, 5, and 20 mg/kg, vs HFD-only, 20 mg/kg most pronounced), the “alternation behavior, Y-maze test” value is on record as “significantly improved”. Also, in data set [2] (HFD-induced AD mice), the “optimal dose in NOR test” value is on record as 5 mg/kg. Also, in data set [2] (HFD-induced AD mice, comparable to Met), the “dosage of optimal therapeutic effect on memory” value is given as 20 mg/kg. Moreover, in data set [2] (TBG096 0.1, 5, 20 mg/kg, Met 140 mg/kg, 54 days), the “number of arm entries, Y-maze test” value is “No significant differences”. The “escape latency, MWM test phase” value in data set [2] (fifth day) is “significant reductions”. In addition, the “escape latency, MWM training phase” value in data set [2] (fourth day, Met 140 mg/kg and all doses of TBG096) is recorded as “markedly reduced”. In data set [2] (vs HFD-only group), the “discrimination index, NOR test phase” value is “higher” and the “number of platform crossings, MWM test phase” value was “increased significantly”.
